This data set relates to rodent carcinogenicity bioassays, tumor incidence. The experiment in a line: CCRIS carcinogenicity studies. The method, boiled down:
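NCI-built, expert-reviewed records of carcinogenicity and related test outcomes (mutagenicity, tumor promotion/inhibition) compiled from published and report sources, historical span 1985-2011, not updated.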

Active and inactive are the calls of the source. No rule for the calls is given here.

In the case of `c1ccc(NNc2ccccc2)cc1`, the carcinogen call is “active; positive” (Species: MOUSE, Strain/Sex: B6C3F1/FEMALE, Route: ORAL, Dose: 0, 0.004, 0.04% TWA, IN DIET FOR 78 WK (STUDY DURATION: 95-96 WK), Dose: 0, 0.004, 0.04% TWA, IN DIET FOR 78 WK (STUDY DURATION: 95-96 WK), Tumor Site: Type of Lesion: LIVER: HEPATOCELLULAR ADENOMA OR CARCINOMA); “inactive; negative” (Species: MOUSE, Strain/Sex: B6C3F1/MALE, Route: ORAL, Dose: 0, 0.008, 0.04% TWA, IN DIET FOR 78 WK (STUDY DURATION: 85 WK), Dose: 0, 0.008, 0.04% TWA, IN DIET FOR 78 WK (STUDY DURATION: 85 WK)); “active; positive” (Species: RAT, Strain/Sex: F344/FEMALE, Route: ORAL, Dose: 0, 0.004, 0.01% TWA, IN DIET FOR 78 WK (STUDY DURATION: 107-108 WK), Dose: 0, 0.004, 0.01% TWA, IN DIET FOR 78 WK (STUDY DURATION: 107-108 WK), Tumor Site: Type of Lesion: LIVER: NEOPLASTIC NODULE); “active; positive” (Species: RAT, Strain/Sex: F344/MALE, Route: ORAL, Dose: 0, 0.008, 0.03% TWA, IN DIET FOR 78 WK (STUDY DURATION: 106-107 WK), Dose: 0, 0.008, 0.03% TWA, IN DIET FOR 78 WK (STUDY DURATION: 106-107 WK), Tumor Site: Type of Lesion: LIVER: NEOPLASTIC NODULE OR HEPATOCELLULAR CARCINOMA, ADRENAL GLAND: PHEOCHROMOCYTOMA OR MALIGNANT PHEOCHROMOCYTOMA, EAR, Tumor Site: Type of Lesion: LIVER: NEOPLASTIC NODULE OR HEPATOCELLULAR CARCINOMA, ADRENAL GLAND: PHEOCHROMOCYTOMA OR MALIGNANT PHEOCHROMOCYTOMA, EAR).
For the molecule `Cc1cc(Cl)ccc1OC(C)C(=O)O` (centres undefined), the carcinogen call (Species: Mouse, Strain/Sex: B6C3F1/CrlBR/Female (50/Group), Route: Oral, Dose: 0, 25, 250 ppm of 92.7% mecoprop in diet for 18 mo, study duration 18 mo, Dose: 0, 25, 250 ppm of 92.7% mecoprop in diet for 18 mo, study duration 18 mo) was “inactive; negative”; the carcinogen call (Species: Mouse, Strain/Sex: B6C3F1/CrlBR/Male (50/Group), Route: Oral, Dose: 0, 25, 250 ppm of 92.7% mecoprop in diet for 18 mo, study duration 18 mo, Dose: 0, 25, 250 ppm of 92.7% mecoprop in diet for 18 mo, study duration 18 mo, Tumor Site: Type of Lesion: Lung: carcinoma) is “active; positive”; the carcinogen call (Species: Rat, Strain/Sex: Wistar/Female (65/Group), Route: Oral, Dose: 0, 20, 100, 400 ppm of 92.7% mecoprop in diet for 24 mo, study duration 24 mo, Dose: 0, 20, 100, 400 ppm of 92.7% mecoprop in diet for 24 mo, study duration 24 mo) is “inactive; negative”; the carcinogen call (Species: Rat, Strain/Sex: Wistar/Male (65/Group), Route: Oral, Dose: 0, 20, 100, 400 ppm of 92.7% mecoprop in diet for 24 mo, study duration 24 mo, Dose: 0, 20, 100, 400 ppm of 92.7% mecoprop in diet for 24 mo, study duration 24 mo) was “inactive; negative”.
With `CCCCCCN(N=O)C(N)=O`, the carcinogen call by setting is: (Species: RAT, Strain/Sex: F344/FEMALE, Route: GAVAGE, Dose: 0, 17.5 MG/ML (TOTAL DOSE 0; 2 MMOL) IN 2 ML ETHYL ACETATE AND CORN OIL (1:2) 2/WK FOR 50 WK (STUDY DURATION: LIFETIME), Dose: 0, 17.5 MG/ML (TOTAL DOSE 0; 2 MMOL) IN 2 ML ETHYL ACETATE AND CORN OIL (1:2) 2/WK FOR 50 WK (STUDY DURATION: LIFETIME), Tumor Site: Type of Lesion: FORESTOMACH: SQUAMOUS CELL CARCINOMA, LUNG: TUMOR, MAMMARY GLAND: TUMOR, UTERUS: TUMOR, Tumor Site: Type of Lesion: FORESTOMACH: SQUAMOUS CELL CARCINOMA, LUNG: TUMOR, MAMMARY GLAND: TUMOR, UTERUS: TUMOR) “active; positive”; (Species: RAT, Strain/Sex: F344/FEMALE, Route: GAVAGE, Dose: 0, 17.5 MG/ML IN 0.2 ML ETHYL ACETATE AND CORN OIL 2/WK FOR 50 WK (STUDY DURATION: LIFESPAN), Tumor Site: Type of Lesion: FORESTOMACH: TUMOR, LUNG: TUMOR, MAMMARY GLAND: TUMOR, UTERUS: TUMOR, Tumor Site: Type of Lesion: FORESTOMACH: TUMOR, LUNG: TUMOR, MAMMARY GLAND: TUMOR, UTERUS: TUMOR) “active; positive”; (Species: RAT, Strain/Sex: F344/MALE, Route: GAVAGE, Dose: 0, 17.5 MG/ML (TOTAL DOSE 0; 2 MMOL) IN 2 ML ETHYL ACETATE AND CORN OIL (1:2) 2/WK FOR 50 WK (STUDY DURATION: LIFETIME), Dose: 0, 17.5 MG/ML (TOTAL DOSE 0; 2 MMOL) IN 2 ML ETHYL ACETATE AND CORN OIL (1:2) 2/WK FOR 50 WK (STUDY DURATION: LIFETIME), Tumor Site: Type of Lesion: FORESTOMACH: SQUAMOUS CELL CARCINOMA, LUNG: TUMOR, BODY CAVITY: MESOTHELIOMA, Tumor Site: Type of Lesion: FORESTOMACH: SQUAMOUS CELL CARCINOMA, LUNG: TUMOR, BODY CAVITY: MESOTHELIOMA) “active; positive”; (Species: RAT, Strain/Sex: F344/MALE, Route: GAVAGE, Dose: 0, 17.5 MG/ML IN 0.2 ML ETHYL ACETATE AND CORN OIL 2/WK FOR 50 WK (STUDY DURATION: LIFESPAN), Tumor Site: Type of Lesion: FORESTOMACH: TUMOR, LUNG: TUMOR, PERITONEUM: MESOTHELIOMA, SKIN: TUMOR, Tumor Site: Type of Lesion: FORESTOMACH: TUMOR, LUNG: TUMOR, PERITONEUM: MESOTHELIOMA, SKIN: TUMOR) “active; positive”.
As to `COc1cc(/C=C/C(=O)CC(=O)/C=C/c2ccc(O)c(OC)c2)ccc1O`, the carcinogen call is “equivocal” (Species: MOUSE, Strain/Sex: B6C3F1/FEMALE, Route: ORAL, Dose: 0, 2000, 10000, 50000 PPM IN FEED FOR 104 WK (STUDY DURATION: 104 WK), Dose: 0, 2000, 10000, 50000 PPM IN FEED FOR 104 WK (STUDY DURATION: 104 WK), Tumor Site: Type of Lesion: LIVER: HEPATOCELLULAR ADENOMA, HEPATOCELLULAR ADENOMA OR CARCINOMA); “equivocal” (Species: MOUSE, Strain/Sex: B6C3F1/MALE, Route: ORAL, Dose: 0, 2000, 10000, 50000 PPM IN FEED FOR 104 WK (STUDY DURATION: 104 WK), Dose: 0, 2000, 10000, 50000 PPM IN FEED FOR 104 WK (STUDY DURATION: 104 WK), Tumor Site: Type of Lesion: LIVER: HEPATOCELLULAR ADENOMA, HEPATOCELLULAR ADENOMA OR CARCINOMA, SMALL INTESTINE: CARCINOMA); “equivocal” (Species: RAT, Strain/Sex: F344/FEMALE, Route: ORAL, Dose: 0, 2000, 10000, 50000 PPM IN FEED FOR 104 WK (STUDY DURATION: 104 WK), Dose: 0, 2000, 10000, 50000 PPM IN FEED FOR 104 WK (STUDY DURATION: 104 WK), Tumor Site: Type of Lesion: CLITORAL GLAND: ADENOMA, ADENOMA OR CARCINOMA); “inactive; negative” (Species: RAT, Strain/Sex: F344/MALE, Route: ORAL, Dose: 0, 2000, 10000, 50000 PPM IN FEED FOR 104 WK (STUDY DURATION: 104 WK), Dose: 0, 2000, 10000, 50000 PPM IN FEED FOR 104 WK (STUDY DURATION: 104 WK)).
For `C[C@]12CC[C@@H]3c4ccc(O)cc4CC[C@H]3[C@@H]1C[C@@H](O)[C@@H]2O`, the carcinogen call by setting is: (Species: HAMSTER, Route: SUBCUTANEOUS IMPLANT, Tumor Site: Type of Lesion: KIDNEY) “active; positive”; (Species: HUMAN, Tumor Site: Type of Lesion: UTERUS (ENDOMETRIUM)) “active; positive”; (Species: MOUSE, Route: SUBCUTANEOUS IMPLANT, Tumor Site: Type of Lesion: MAMMARY GLAND) “active; positive”.
`CC#N`: the carcinogen call reads like this: (Species: MOUSE, Strain/Sex: B6C3F1/FEMALE, Route: INHALATION, Dose: 0, 50, 100, 200 PPM 6 HR/D 5 D/WK FOR 103 WK (STUDY DURATION: 105 WK), Dose: 0, 50, 100, 200 PPM 6 HR/D 5 D/WK FOR 103 WK (STUDY DURATION: 105 WK)) “inactive; negative”; (Species: MOUSE, Strain/Sex: B6C3F1/MALE, Route: INHALATION, Dose: 0, 50, 100, 200 PPM 6 HR/D 5 D/WK FOR 103 WK (STUDY DURATION: 105 WK), Dose: 0, 50, 100, 200 PPM 6 HR/D 5 D/WK FOR 103 WK (STUDY DURATION: 105 WK)) “inactive; negative”; (Species: RAT, Strain/Sex: F344/FEMALE, Route: INHALATION, Dose: 0, 100, 200, 400 PPM 6/HR/D 5 D/WK FOR 103 WK (STUDY DURATION: 105 WK), Dose: 0, 100, 200, 400 PPM 6/HR/D 5 D/WK FOR 103 WK (STUDY DURATION: 105 WK)) “inactive; negative”; (Species: RAT, Strain/Sex: F344/MALE, Route: INHALATION, Dose: 0, 100, 200, 400 PPM 6/HR/D 5 D/WK FOR 103 WK (STUDY DURATION: 105 WK), Dose: 0, 100, 200, 400 PPM 6/HR/D 5 D/WK FOR 103 WK (STUDY DURATION: 105 WK), Tumor Site: Type of Lesion: LIVER: HEPATOCELLULAR ADENOMA, HEPATOCELLULAR CARCINOMA, HEPATOCELLULAR ADENOMA OR CARCINOMA) “equivocal”.
On to `Cl/C=C\CCl`, for which, for the setting “Species: MOUSE, Strain/Sex: ICR/FEMALE, Route: SUBCUTANEOUS, Dose: 3.0 MG/INJ IN 0.05 ML TRIOCTANOIN 1/WK, Tumor Site: Type of Lesion: INJECTION SITE: FIBROSARCOMA”, the carcinogen call was “active; positive”.

The values are drawn from PubChem BioAssay AID1259411 (Chemical Carcinogenesis Research Information System (CCRIS), 2018).
